In patent US20160220637A1, “Pharmaceutical Compositions of Growth Hormone Secretagogue Receptor Ligands” (Ipsen Pharma S.A.S., priority 2010, published 2016):
pKi: −log10 of the molar value. Where a name gives a salt, the structure may show the parent alone. Non-standard residues stand in square brackets, D forms with d. Residues, ends and D or L forms follow the SMILES beside them. dBip = N[C@H](Cc1ccc(-c2ccccc2)cc1)C(=O)O; dBta = N[C@H](Cc1csc2ccccc12)C(=O)O; Api = NC1(C(=O)O)CCNCC1; Inp = O=C(O)C1CCNCC1

Key:
[1] = biological target: human recombinant GHS receptor (Homo sapiens, UniProt Q92847); conditions: read-out: hGHS Ki; 0.05 nM (125I)ghrelin, 60 min, 4° C., CHO-K1 membranes
human recombinant GHS receptor, sequence (Q92847 whole entry): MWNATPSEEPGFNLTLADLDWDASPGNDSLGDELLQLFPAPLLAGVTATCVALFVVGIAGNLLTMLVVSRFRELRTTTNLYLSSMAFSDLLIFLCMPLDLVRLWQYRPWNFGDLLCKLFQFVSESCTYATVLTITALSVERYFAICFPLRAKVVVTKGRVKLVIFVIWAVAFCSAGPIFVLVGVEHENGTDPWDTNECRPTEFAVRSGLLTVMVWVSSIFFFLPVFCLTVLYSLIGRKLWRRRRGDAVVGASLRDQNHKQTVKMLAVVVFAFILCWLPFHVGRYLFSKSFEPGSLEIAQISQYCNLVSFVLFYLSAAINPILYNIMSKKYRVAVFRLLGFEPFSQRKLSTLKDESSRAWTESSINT
Experimental: Radioligand Binding Assays
Cellular membranes used for the in vitro receptor binding assay were obtained from transgenic CHO-K1 cells stably expressing the human recombinant GHS receptor. CHO-K1 cells stably expressing the hGHS receptor were homogenized in 20 ml of ice-cold 50 mM Tris-HCl with a Brinkman Polytron (Westbury, N.Y., USA) (setting 6, 15 sec). The homogenates were washed twice by centrifugation (39,000 g/10 min), and the final pellets were resuspended in 50 mM Tris-HCl, containing 2.5 mM MgCl2, and 0.1% BSA.

Solubility study = assay type: physicochemical
Text: The mixture was sonicated to facilitate dissolution.

Compound: NC(=O)[C@H](Cc1ccccc1)NC(=O)[C@@H](Cc1c[nH]c2ccccc12)NC(=O)[C@@H](Cc1ccc(-c2ccccc2)cc1)NC(=O)C1CCNCC1 [Example 16, H-Inp-D-Bip-D-Trp-Phe-NH2] (H-[Inp][dBip][dW]F-NH2)
- pKi [1]: 7.70

Compound: NC(=O)C1(NC(=O)[C@H](Cc2ccccc2)NC(=O)[C@@H](Cc2c[nH]c3ccccc23)NC(=O)[C@@H](Cc2csc3ccccc23)NC(=O)C2CCNCC2)CCNCC1 [Pamoate salt of Example 1 with Zn] (H-[Inp][dBta][dW]F[Api]-NH2)
- Solubility, PBS, pH 7.4 (Solubility study; PBS, pH 7.4, HPLC of supernatant): 0.08 mg/mL
- Solubility, Water, pH 7.0 (Solubility study; HPLC of supernatant): 0.14 mg/mL

Compound: NC(=O)C1(NC(=O)[C@H](Cc2ccccc2)NC(=O)[C@@H](Cc2c[nH]c3ccccc23)NC(=O)[C@@H](Cc2csc3ccccc23)NC(=O)C2CCNCC2)CCNCC1 [Pamoate salt of Example 1, pamoate salt of H-Inp-D-Bal-D-Trp-Phe-Apc-NH2] (H-[Inp][dBta][dW]F[Api]-NH2)
- Dissolution in PEG200/water (Solubility study; 50 mg in 125 μL PEG200 and 125 μL water, sonicated): A clear solution was obtained
- solubility (Solubility study; PBS, pH 7.4, PBS, pH 7.4, HPLC of supernatant): 70 µg/mL
- Solubility, Water, pH 7.0 (Solubility study; HPLC of supernatant): 0.06 mg/mL
